The target in the test is T1, renin (Homo sapiens, UniProt P00797).
T1 construct: This test measures the formation of angiotensin I in human plasma; from tissue; host or cells: human plasma
T1 sequence (P00797 67-406): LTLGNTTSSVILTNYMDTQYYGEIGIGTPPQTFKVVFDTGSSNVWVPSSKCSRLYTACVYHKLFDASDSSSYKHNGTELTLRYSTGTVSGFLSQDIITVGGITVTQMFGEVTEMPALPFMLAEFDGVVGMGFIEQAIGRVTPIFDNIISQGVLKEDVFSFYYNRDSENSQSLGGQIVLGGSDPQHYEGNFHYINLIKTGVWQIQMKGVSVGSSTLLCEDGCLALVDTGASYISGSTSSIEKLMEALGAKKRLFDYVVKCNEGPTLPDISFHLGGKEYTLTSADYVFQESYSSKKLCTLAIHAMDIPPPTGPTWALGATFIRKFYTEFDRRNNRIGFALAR
Briefly: in vitro test of Nussberger et al.: formation of angiotensin I in human plasma (radioimmunoassay). The test is classed as biochemical. The note with it: inhibition of formation of angiotensin I in human plasma. How it is done: The effect of renin inhibitors is detected inter alia experimentally by means of in vitro tests where the reduction in the formation of angiotensin I is measured in various systems (human plasma, purified human renin together with synthetic or natural renin substrate). The following in vitro test of Nussberger et al. (1987) J. Cardiovascular Pharmacol., Vol. 9, pp. 39-44, is used inter alia. This test measures the formation of angiotensin I in human plasma. The amount of angiotensin I formed is determined in a subsequent radioimmunoassay. The effect of inhibitors on the formation of angiotensin I is tested in this system by adding various concentrations of these substances. The IC50 is defined as the concentration of the particular inhibitor which reduces the formation of angiotensin I by 50%. The compounds of the present invention show inhibitory effects in the in vitro systems at minimal concentrations of about 10^−6 to about 10^−10 mol/I.

Results on four compounds are retold here after US20110212950A1, “4,4-DISUBSTITUTED PIPERIDINES” (NOVARTIS AG, priority 2007, published 2011).

As usually defined, the IC50 is the concentration that gives 50% inhibition. Low readings indicate greater potency in that assay, high ones weaker potency in that assay. The compound `COCCCN1CCOc2ccc(CO[C@H]3CNCC[C@]3(O)c3ccc(COCCOC)cc3)cc21` [Example 361, (3S,4S)-4-[4-(2-Methoxy-ethoxymethyl)-phenyl]-3-[4-(3-methoxy-propyl)-3,4-dihydro-2H-benzo[1,4]oxazin-6-ylmethoxy]-piperidin-4-ol] had an IC50 of 40.4 nM.

For the compound `COCCCN1CCOc2ccc(CO[C@H]3CNCC[C@]3(O)c3ccc(COC[C@@H](C)Cn4cnnn4)cc3)cc21` [Example 371, (3S,4S)-3-[4-(3-Methoxy-propyl)-3,4-dihydro-2H-benzo[1,4]oxazin-6-ylmethoxy]-4-[4-((S)-2-methyl-3-tetrazol-1-yl-propoxymethyl)-phenyl]-piperidin-4-ol], the IC50 was determined as 123 nM.

Compound `CCO[C@H](C)COCc1ccc([C@@]2(O)CCNC[C@@H]2OCc2ccc3c(c2)N(CCCOC)CCO3)c(OCCOC)c1` [Example 375, (3S,4S)-4-[4-((R)-2-Ethoxy-propoxymethyl)-2-(2-methoxy-ethoxy)-phenyl]-3-[4-(3-methoxy-propyl)-3,4-dihydro-2H-benzo[1.4]oxazin-6-ylmethoxy]-piperidin-4-ol] displayed a 50% inhibitory concentration (IC50) of 84.3 nM.

On to `CCO[C@H](C)COCc1ccc([C@@]2(O)CCNC[C@@H]2OCc2ccc3c(c2)N(CCCOC)CCO3)c(CCOC)c1` [Example 378, (3S,4S)-4-[4-((R)-2-Ethoxy-propoxymethyl)-2-(2-methoxy-ethyl)-phenyl]-3-[4-(3-methoxy-propyl)-3,4-dihydro-2H-benzo[1,4]oxazin-6-ylmethoxy]-piperidin-4-ol], for which the 50% inhibitory concentration (IC50) stood at 9.6 nM. Compared with the last compound, the IC50 is about 8.8-fold lower.
